# In patent US10117917B2, “Peptides and combination of peptides for use in immunotherapy against various cancers” (immatics biotechnologies GmbH, priority 2015, dated 2018):
# System: HLA-A*24
# Test: MHC binding assay (UV-ligand exchange, beta2m ELISA), HLA-A*24
# Parameters: species or system human
# Settings: peptide exchange yield, binding to HLA-A*24, UV-ligand exchange
# From the text: Candidate peptides for T cell based therapies according to the present invention were further tested for their MHC binding capacity (affinity). The individual peptide-MHC complexes were produced by UV-ligand exchange, where a UV-sensitive peptide is cleaved upon UV-irradiation, and exchanged with the peptide of interest as analyzed. Only peptide candidates that can effectively bind and stabilize the peptide-receptive MHC molecules prevent dissociation of the MHC complexes. To determine the yield of the exchange reaction, an ELISA was performed based on the detection of the light chain ((β2m) of stabilized MHC complexes. The assay was performed as generally described in Rodenko et al. (Rodenko et al., 2006).
# 96 well MAXISorp plates (NUNC) were coated over night with 2 ug/ml streptavidin in PBS at room temperature, washed 4× and blocked for 1 h at 37° C. in 2% BSA containing blocking buffer. Refolded HLA-A*02:01/MLA-001 monomers served as standards, covering the range of 15-500 ng/ml. Peptide-MHC monomers of the UV-exchange reaction were diluted 100 fold in blocking buffer. Samples were incubated for 1 h at 37° C., washed four times, incubated with 2 ug/ml HRP conjugated anti-β2m for 1 h at 37° C., washed again and detected with TMB solution that is stopped with […]. Absorption was measured at 450 nm. Candidate peptides that show a high exchange yield (preferably higher than 50%, most preferred higher than 75%) are generally preferred for a generation and production of antibodies or fragments thereof, and/or T cell receptors or fragments thereof, as they show sufficient avidity to the MHC molecules and prevent dissociation of the MHC complexes.
row,Peptide exchange,Substance
1,+ (<20% = +),194 (EFGSLHLEFL; listed as Homo sapiens) [compound 194]
2,++++ (>=75% = ++++),195 (TYSVSFPMF; listed as Homo sapiens) [compound 195]
3,++++ (>=75% = ++++),202 (VYWDSAGAAHF; listed as Homo sapiens) [compound 202]
4,++++ (>=75% = ++++),210 (IYTMIYRNL; listed as Homo sapiens) [compound 210]
5,++++ (>=75% = ++++),211 (YYLEVGKTLI; listed as Homo sapiens) [compound 211]
6,++++ (>=75% = ++++),216 (QYSSVFKSL; listed as Homo sapiens) [compound 216]
7,++++ (>=75% = ++++),217 (FFPPTRQMGLLF; listed as Homo sapiens) [compound 217]
8,++++ (>=75% = ++++),227 (IFLDYEAGTLSF; listed as Homo sapiens) [compound 227]
9,++++ (>=75% = ++++),228 (KYTSWYVAL; listed as Homo sapiens) [compound 228]
10,++++ (>=75% = ++++),267 (KYMVYPQTF; listed as Homo sapiens) [compound 267]
11,++++ (>=75% = ++++),271 (LYHDIFSRL; listed as Homo sapiens) [compound 271]
12,++++ (>=75% = ++++),272 (QYLQDAYSF; listed as Homo sapiens) [compound 272]
13,++++ (>=75% = ++++),274 (AYLHSHALI; listed as Homo sapiens) [compound 274]
14,++++ (>=75% = ++++),276 (VYGFQWRHF; listed as Homo sapiens) [compound 276]
15,++++ (>=75% = ++++),277 (VYQGHTALL; listed as Homo sapiens) [compound 277]
16,++++ (>=75% = ++++),278 (RYISDQLFTNF; listed as Homo sapiens) [compound 278]
17,++++ (>=75% = ++++),280 (RYPDNLKHLYL; listed as Homo sapiens) [compound 280]

# The next lines start with the substance.
row,Substance,Peptide exchange
1,160 (VYTLDIPVL; listed as Homo sapiens) [compound 160],++++ (>=75% = ++++)
2,161 (IYLVSIPEL; listed as Homo sapiens) [compound 161],++++ (>=75% = ++++)
3,166 (YYVESGKLF; listed as Homo sapiens) [compound 166],++++ (>=75% = ++++)
4,168 (KYQDILETI; listed as Homo sapiens) [compound 168],++++ (>=75% = ++++)
5,172 (TYTTVPRVAF; listed as Homo sapiens) [compound 172],++++ (>=75% = ++++)
6,173 (IYSWILDHF; listed as Homo sapiens) [compound 173],++++ (>=75% = ++++)
7,175 (YYEVHKELF; listed as Homo sapiens) [compound 175],++++ (>=75% = ++++)
8,177 (VYPWLGALL; listed as Homo sapiens) [compound 177],++++ (>=75% = ++++)
9,179 (MYDSYWRQF; listed as Homo sapiens) [compound 179],++++ (>=75% = ++++)
10,181 (LYLDIINLF; listed as Homo sapiens) [compound 181],++++ (>=75% = ++++)
11,184 (VFQNFPLLF; listed as Homo sapiens) [compound 184],++++ (>=75% = ++++)
12,186 (IFPQFLYQF; listed as Homo sapiens) [compound 186],++++ (>=75% = ++++)
13,187 (TYLRDQHFL; listed as Homo sapiens) [compound 187],++++ (>=75% = ++++)
14,192 (SYALLTYMI; listed as Homo sapiens) [compound 192],++++ (>=75% = ++++)
15,193 (RFHPTPLLL; listed as Homo sapiens) [compound 193],++++ (>=75% = ++++)
